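Assay format: 96-well plates, 48-hour exposure. GI50: concentration for 50% inhibition of growth. At the TGI there is no net growth.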
What was measured:
Assay in all cases: inhibition of tumour cell growth, NCI panel, 48 h
A549 NSCLC = tested on: A549 NSCLC
OVCAR-8 ovarian = tested on: OVCAR-8 ovarian
786-0 renal = tested on: 786-0 renal
OVCAR-5 ovarian = tested on: OVCAR-5 ovarian
UACC-62 melanoma = tested on: UACC-62 melanoma
UACC-257 melanoma = tested on: UACC-257 melanoma
NCI-H460 lung = tested on: NCI-H460 lung
OVCAR-3 ovarian = tested on: OVCAR-3 ovarian
SR leukemia = tested on: SR leukemia
MDA-MB-435 = tested on: MDA-MB-435

Row | SMILES | TGI (A549 NSCLC) [µM] | TGI (OVCAR-8 ovarian) [µM] | TGI (786-0 renal) [µM] | TGI (OVCAR-5 ovarian) [µM] | TGI (UACC-62 melanoma) [µM] | TGI (UACC-257 melanoma) [µM] | GI50 (NCI-H460 lung) [µM] | TGI (NCI-H460 lung) [µM] | GI50 (A549 NSCLC) [µM] | GI50 (OVCAR-8 ovarian) [µM] | GI50 (786-0 renal) [µM] | GI50 (OVCAR-5 ovarian) [µM] | GI50 (OVCAR-3 ovarian) [µM] | TGI (OVCAR-3 ovarian) [µM] | GI50 (SR leukemia) [µM] | TGI (SR leukemia) [µM] | GI50 (UACC-62 melanoma) [µM] | GI50 (MDA-MB-435) [µM] | TGI (MDA-MB-435) [µM] | GI50 (UACC-257 melanoma) [µM]
1 | C/C(=N\NC(=S)N1CCCCCC1)c1nccnc1C | 30.6 | > 100 | > 100 | > 100 | 1.3 | 1.77 | – | – | – | – | – | – | – | – | – | – | – | – | – | –
2 | CC(C)C[C@H](NC(=O)[C@H](Cc1ccccc1)n1ccc(N2CCCCC2)cc1=O)B(O)O | > 100 | > 100 | > 100 | 97.3 | 2.44 | – | 3.18 | > 100 | 2.39 | 3.64 | 0.825 | 3.15 | 0.327 | 1.21 | 0.259 | 11.6 | 0.458 | 0.177 | 0.371 | –
3 | O=C(O)c1ccc(NC(=O)C2C(=O)C(=O)N(c3ccc(C(=O)O)cc3)C2=O)cc1 (stereo not drawn) | > 100 | > 100 | > 100 | > 100 | > 100 | > 100 | – | > 100 | – | – | – | – | – | > 100 | – | – | – | – | – | –
4 | Cc1ccc(S(=O)(=O)N/N=C(\CCN2CCCC2)CC(c2ccccc2)c2c(O)c3ccccc3oc2=O)cc1 (stereo not drawn) | > 100 | > 100 | > 100 | > 100 | > 100 | > 100 | – | > 100 | – | – | – | – | – | > 100 | – | > 100 | – | – | – | –
5 | CC(=O)N(C)OC(=O)CC(=O)c1ccccc1 | > 100 | > 100 | > 100 | > 100 | > 100 | > 100 | – | > 100 | – | – | – | – | – | > 100 | – | > 100 | – | – | – | –
6 | O=P(c1ccccc1)(c1ccccc1)C1CC=C(c2ccccc2)C2(CCCC2)C1 (stereo not drawn) | > 100 | > 100 | > 100 | > 100 | > 100 | > 100 | – | > 100 | – | – | – | – | – | > 100 | – | – | – | – | – | –
7 | CCCCCCCCCCCCCS(=O)(=O)O | > 100 | > 100 | > 100 | > 100 | > 100 | > 100 | – | > 100 | – | – | – | – | – | > 100 | – | – | – | – | – | –
8 | CC(Cn1c2c3ccccc3ccc2c2oc(=O)c3ccccc3c21)N(C)C (stereo not drawn) | > 100 | > 100 | > 100 | > 100 | > 100 | > 100 | – | > 100 | – | – | – | – | – | > 100 | – | > 100 | – | – | – | –
9 | O=C(Nc1ccc(Cl)c(C(F)(F)F)c1)C(=O)C(C(=O)/C=C/c1ccccc1)C1OC(=O)c2ccccc21 (stereo not drawn) | > 100 | > 100 | > 100 | > 100 | > 100 | > 100 | – | > 100 | – | – | – | – | – | > 100 | – | > 100 | – | – | – | –
10 | Cn1ccnc1C(=O)/C=C/c1ccc(CC(=O)Nc2ccc(Cl)cc2)cc1 | > 25 | > 25 | > 25 | > 25 | > 25 | > 25 | 1.58 | > 25 | 11.5 | 3.49 | 1.6 | 9.97 | 1.03 | > 25 | – | – | 6.5 | 9.16 | > 25 | > 25
11 | CNc1ccccc1C(=O)N/N=C/C=C/c1ccccc1 | > 100 | > 100 | > 100 | > 76.5 | 32.7 | 72.1 | 0.503 | > 41.9 | 1.06 | 3.41 | 15.6 | 6.64 | 0.563 | > 100 | 0.402 | > 88.8 | 0.816 | – | – | 11.4
12 | C/C(CN1C(=O)c2ccccc2C1=O)=N\NS(=O)(=O)c1cccc([N+](=O)[O-])c1 | > 100 | > 100 | > 100 | > 100 | > 100 | > 100 | – | > 100 | – | – | – | – | – | > 100 | – | – | – | – | – | –
13 | O=C1C2C(C(=O)N1O)N(Cc1ccccc1)C(=O)N2Cc1ccccc1 (stereo not drawn) | > 100 | > 100 | > 100 | > 100 | > 100 | > 100 | – | > 100 | – | – | – | – | – | > 100 | – | > 100 | – | – | – | –
14 | CC(C)C(C(=O)O)N(CC1(O)OCC(O)C(O)C1O)N=O (stereo not drawn) | > 100 | > 100 | > 100 | > 100 | > 100 | > 100 | – | > 100 | – | – | – | – | – | > 100 | – | – | – | – | – | –
15 | CCNc1nnc(CSc2nc(-c3ccccc3)c(-c3ccccc3)[nH]2)s1 | 69.5 | 30 | 56.6 | 39.8 | – | 34.9 | – | 59.2 | – | – | – | – | – | 37.1 | – | > 100 | – | – | – | –
16 | O=C(Nc1ccc(S(=O)(=O)Nc2nccs2)cc1)c1cccnc1Nc1cccc(Cl)c1 | 39.8 | 48.4 | 39.9 | 44.8 | 20.3 | 43.6 | 16 | 32.6 | 15.3 | 18 | 17.9 | 17.6 | 13.1 | 27.4 | – | – | 6.62 | 14.3 | 33.4 | 18.8
17 | Nc1ccccc1C#CC#Cc1ccccc1N | 87.4 | > 100 | 27 | – | 25.3 | 24.5 | 11.8 | 28.4 | 13.8 | 28.7 | 13.2 | – | 2.85 | 36.3 | – | 69.8 | 11.8 | 4.6 | 31.3 | 4.56
18 | Cc1ccc(NC(=O)c2[nH]c(=S)nc(N)c2-c2ccccc2C)cc1C | > 100 | > 100 | > 100 | > 100 | > 100 | > 100 | – | > 100 | – | – | – | – | – | > 100 | – | – | – | – | – | –
19 | CN/N=C(/Cc1occc(=O)c1O)C(=O)Nc1ccc(C)c(C)c1 | > 100 | > 100 | > 100 | > 100 | > 100 | > 100 | – | > 100 | – | – | – | – | – | > 100 | – | > 100 | – | – | – | –
20 | CC(=O)N1CCC2(C=Nc3ccccc32)CC1 | > 100 | > 100 | > 100 | > 100 | > 100 | > 100 | – | > 100 | – | – | – | – | – | > 100 | – | – | – | – | – | –
